Legend:
Assay type in all cases: physicochemical
[1] = PTR-MS headspace release at various flavor compound to 1,3-propanediol or PG ratios (Example 2); details: for release suppressed in the presence of 1,3-propanediol: 10% cut-off for significant difference, relative to PG; for Percent Suppression by 1,3-propanediol: (IZ−IPG)/IPG×100
Experimental: The compounds listed below in Table 3 were added together to provide a liquid flavoring to analyze the role, if any, of the amount of 1,3-propanediol on flavor release. […] The amount of each flavor compound in the beverage was held constant at 8 ppm except furfuryl mercaptan was included at 1.6 ppm while the amount of propylene glycol or 1,3-propanediol varied.
The percent suppression was calculated using the following formula: (IZ−IPG)/IPG×100, where I is peak height, “Z” is 1,3-propanediol and “PG” is propylene glycol.

[2] = PTR-MS headspace release from stored beverages, water/solvent experiment (Example 4); details: beverage stored refrigerated; 1.5, 24, 48 and 72 hours; Tukey-Kramer
Experimental: 0.86 grams of the flavor concentrate was then added to 100 grams of either propylene glycol or 1,3-propanediol to provide diluted concentrates. […].
The beverages were then stored in sealed containers in a refrigerator. The container was opened five times over the course of the experiment and therefore represented a beverage in a sealed container being opened for multiple uses. 15 gram samples were weighed into a 4 ounce cup and analyzed at 1.5 hours, 24 hours, 48 hours, and 72 hours after storage.
The samples were analyzed in triplicate by PTR-MS as described below to determine impact of 1,3-propanediol or propylene glycol on release of the flavors from the beverage. The PTR-MS was performed as follows. A sampling apparatus was needed in conjunction with the PTR-MS inlet to prevent variations caused by headspace kinetics. The sampling apparatus used includes a 4 ounce sample vessel equipped with a 2-hole lid which may be sealed by an adhesive film to allow equilibration. […]. The holes were equal sized (˜2 mm diameter) and match the outer diameter of the PTR-MS inlet line. The flow of the dilution gas into the vessel was regulated by the vacuum and proportional valve of the PTR-MS inlet system. […] The 2 holes in the lid were equidistant from the edge of the vessel (˜20 mm) and ˜30 mm from each other. The PTR-MS inlet was braced by clamps in a fixed position vertically above the laboratory bench (˜55 mm) and a silicone rubber depth gauge was affixed to the PTR-MS inlet tubing and set at 18 mm. The PTR-MS inlet was consistently oriented in a vertical position […] below the inside lid of the vessel and 19 mm above the sample in the vessel. The sample vessel was then held in place during sampling according to the depth gauge on the inlet line and the vessel was subsequently supported on the bench by a 10 mm plastic spacer.
15 grams of the sample to be tested (e.g., food or beverage product containing 1,3-propanediol) are added to the vessel and the vessel is sealed and allowed to equilibrate at room temperature (˜22° C.) for 90 minutes. At the time of sampling, the seal was removed from both the sampling hole and the dilution gas hole in the lid and the vessel was immediately affixed to the PTR-MS inlet via the sampling hole. The real-time released flavor was measured from the headspace of the sample vessel for two minutes (according to the conditions listed in Table 1 above).
The data was analyzed using PTR-MS Viewer, Version 3.0.0.101 (Ionicon Analytik G.m.b.H). The point of maximum intensity for each compound of interest was determined and recorded according to the PTR-MS Viewer software. The maximum intensity in counts over the timescale for each compound of interest was used for data analysis as it reflected the static equilibrium headspace concentration in the system at the moment of seal removal. Due to the necessity of a dilution gas, the volatile concentration decreased over time as the compounds of interest re-equilibrated to a state of dynamic equilibrium in the headspace.
The statistical differences were determined by Tukey-Kramer Honest […]. […].

[3] = PTR-MS headspace release in neat solvent, solvent/solvent experiment (Example 5); design: key to Release Differences: “Z” indicates that 1,3-propanediol had higher equilibrium maximum (meaning more of the flavor was released in 1,3-propanediol); “P” indicates that propylene glycol had higher equilibrium maximum; “-” indicates no statistical difference (95% significance) between the two samples; details: 1.5 hrs equilibration; for Release Differences: 1,3-propanediol versus propylene glycol as sole solvent, 95% significance
Experimental: […]. Then the head space was analyzed as described above.
0.86 grams of the concentrate was added to 100 grams of either propylene glycol or 1,3-propanediol to provide a 1,3-propanediol diluted concentrate or propylene glycol diluted concentrate. The diluted concentrates were then further diluted as outlined in Table 10 below.
A 15 gram sample was weighed into a 4 oz vessel and analyzed at 1.5 hrs. of equilibration time as described in the method of Example 4.

[4] = ratio 0.005:100, negative = suppressed vs PG

| SMILES | release suppressed in the presence of 1,3-propanediol [1] | effect of 1,3-propanediol on release ([1]; flavor/1,3-propanediol ratio of 0.005:100, 0.05:100, and 5:100) | effect of 1,3-propanediol on release ([1]; ratio 0.005:100) | Percent Suppression by 1,3-propanediol [1, 4] [%] | Percent Suppression by 1,3-propanediol ([1]; ratio 0.05:100) [%] | Percent Suppression by 1,3-propanediol ([1]; ratio 5:100) [%] | Percent Suppression by 1,3-propanediol ([1]; ratio 15:100) [%] | effect of 1,3-propanediol on flavor release relative to propylene glycol, water/solvent [2] | Release Differences [3] | release in 1,3-propanediol versus propylene glycol, solvent/solvent [3] | effect of 1,3-propanediol on release ([1]; flavor/1,3-propanediol ratio of 0.05:100 and 5:100) |
| --- | --- | --- | --- | --- | --- | --- | --- | --- | --- | --- | --- |
| CC=O [Acetaldehyde] | suppressed | significant suppression effect | still suppressed | −22.1 | −37.3 | −57.4 | 64.5 | released faster in propylene glycol | Z | released faster (as evidenced by higher headspace concentration) in 1,3-propanediol |  |
| O=Cc1ccccc1 [Benzaldehyde] | suppressed |  |  | −0.5 | −90.3 | −40.6 | −16.2 | significantly suppressed release | P |  | significant suppression effect |
| CCCC(=O)OCC [Ethyl butyrate] |  |  |  | 3.2 | 14.9 | −21.8 | −3.3 | little effect | Z |  |  |

Reference: patent US9883691B2, “Food and beverage products containing 1,3-propanediol and methods of modifying flavor release using 1,3-propanediol” (Kraft Foods Group Brands LLC, priority 2012, dated 2018)
